Laboratory results: US20080076050A1, “P-Terphenyl Compound And Photosensitve Body For Electrophotography Using Such Compound” (Hodogaya Chemical Co., Ltd., priority 2004, published 2008)

How the values were obtained:
[1] = Solubility in organic solvents; format: physicochemical; conditions: 25° C., amount of solute (g) based on 100 ml of solvent
Method: The solubility of Synthesis Examples 1 to 3 and Synthesis Comparative Example 1 in organic solvents (1,2-dichloroethane, toluene and tetrahydrofuran) at 25° C. was measured. The solubility was indicated by the amount of solute (g) based on 100 ml of solvent.

[2] = Dissolving the charge transporting agent in dichloroethane solution of polycarbonate resin for the charge transporting layer; format: physicochemical; conditions: 8.0% dichloroethane solution of polycarbonate resin (Iupilon Z)
Method: On the other hand, 1.5 parts of the p-terphenyl compound (compound No. 1) synthesized in Synthesis Example 1 was added as a charge transporting agent to 18.75 parts of a 8.0% dichloroethane solution of a polycarbonate resin (Iupilon Z, manufactured by Mitsubishi Engineering-Plastics Corporation), followed by application of an ultrasonic wave to completely dissolve the p-terphenyl compound. This solution was applied onto the above-mentioned charge generating layer with a wire bar, and dried at 110° C. under normal pressure for 30 minutes to form a charge transporting layer having a film thickness of 20 μm, thus preparing photoconductor No. 1.
Photoconductor No. 7 was prepared in the same manner as in Photoconductor Example 1 with the exception that the charge transporting agent used in Photoconductor Example 1 was changed to the same amount of the p-terphenyl compound (comparative compound No. 1) synthesized in Synthesis Comparative Example 1.
On the other hand, 0.9 part of the p-terphenyl compound (compound No. 1) synthesized in Synthesis Example 1 was added as a charge transporting agent to 11.25 parts of a 8.0% dichloroethane solution of a polycarbonate resin (Iupilon Z, manufactured by Mitsubishi Engineering-Plastics Corporation), followed by application of an ultrasonic wave to completely dissolve the p-terphenyl compound. […]

Row | SMILES | Solubility in 1,2-Dichloroethane [1] | Solubility in Tetrahydrofuran [1] | Solubility in Toluene [1] | Solubility of charge transporting agent when preparing the photoconductor [2] | melting point
1 | Cc1ccc(N(c2ccc(C)cc2)c2ccc(-c3ccc(-c4ccc(N(c5ccc(C)cc5)c5ccc(C)cc5)cc4)cc3)cc2)cc1 [Comparative Compound 1, N,N,N′,N′-tetra-p-tolyl-4,4″-diamino-p-terphenyl] | 2.3 g/100 ml | 12.4 g/100 ml | 2.2 g/100 ml | insoluble | 232.5 to 233.5 °C
2 | Cc1ccc(N(c2ccc(-c3ccc(-c4ccc(N(c5ccc(C)cc5)c5ccc6c(c5)CCC6)cc4)cc3)cc2)c2ccc3c(c2)CCC3)cc1 [Compound No. 1, N,N′-bisindane-5-yl-N,N′-di-p-tolyl-4,4″-diamino-p-terphenyl] | 4.2 g/100 ml | 20.8 g/100 ml | 11.0 g/100 ml |  | 207.4 to 208.1 °C
3 | COc1ccc(N(c2ccccc2)c2ccc(-c3ccc(-c4ccc(N(c5ccccc5)c5ccc(OC)cc5C)cc4)cc3)cc2)c(C)c1 [Compound No. 2, N,N′-di(4-methoxy-2-methylphenyl)-N,N′-diphenyl-4,4″-diamino-p-terphenyl] | 3.5 g/100 ml | 18.1 g/100 ml | 9.3 g/100 ml |  | 180.8 to 183.4 °C
4 | COc1ccc(N(c2ccc(-c3ccccc3)cc2)c2ccc(-c3ccc(-c4ccc(N(c5ccc(-c6ccccc6)cc5)c5ccc(OC)cc5C)cc4)cc3)cc2)c(C)c1 [Compound No. 3, N,N′-bis-biphenyl-4-yl-N,N′-di-4-methoxy-2-methylphenyl-4,4″-diamino-p-terphenyl] | 30.0 or more g/100 ml | 30.0 or more g/100 ml | 30.0 or more g/100 ml |  | 232.6 to 233.2 °C
5 | Cc1ccc(N(c2ccccc2)c2ccc(-c3ccc(-c4ccc(N(c5ccccc5)c5ccc(C)cc5)cc4)cc3)cc2)cc1 [Compound No. 17, N,N′-diphenyl-N,N′-di-p-tolyl-4,4″-diamino-p-terphenyl] |  |  |  |  | 167.2 to 168.2 °C
